# Test results reported in ChEMBL document CHEMBL4014287, “Jesridonin in combination with paclitaxel demonstrates synergistic anti-tumor activity in human esophageal carcinoma cells” (Bioorg Med Chem Lett, 2017).
# Active and inactive are the calls of the source. The rule behind the calls is not given here.
# Experiments:
# Mus musculus [1] = assay: Hepatotoxicity in nude mouse xenografted with human EC109 cells assessed as change in serum albumin level at 10 mg/kg in presence of paclitaxel measured after 21 days; assay type: toxicity, organism-based; settings: in vivo, 504 h
# ECa-109 cell line [2] = assay: Antitumor activity against human EC109 cells xenografted in nude mouse assessed as decrease in tumor weight at 10 mg/kg in presence of 5 mg/kg paclitaxel measured after 21 days; assay type: functional, organism-based
# ECa-109 cell line [3] = assay: Antitumor activity against human EC109 cells xenografted in nude mouse assessed as tumor growth inhibition at 10 mg/kg in presence of 5 mg/kg paclitaxel measured after 21 days relative to control; assay type: functional
# ECa-109 cell line [4] = assay: Antitumor activity against human EC109 cells xenografted in nude mouse assessed as induction of necrosis at 10 mg/kg in presence of paclitaxel measured after 21 days by H and E staining based assay; assay type: functional, organism-based
# ECa-109 cell line [5] = assay: Induction of apoptosis in human EC109 cells assessed as increase in Bid level at 15 uM in presence of 5 nM paclitaxel by Western blot method; assay type: functional, cell-based
# ECa-109 cell line [6] = assay: Cytotoxicity against human EC109 cells assessed as combination index at 15 uM in presence of 2.5 nM paclitaxel; assay type: functional
# ECa-109 cell line [7] = assay: Induction of apoptosis in human EC109 cells assessed as increase in Bax level at 15 uM in presence of 5 nM paclitaxel by Western blot method; assay type: functional, cell-based
# ECa-109 cell line [8] = assay: Induction of apoptosis in human EC109 cells assessed as nuclear condensation at 15 uM in presence of 5 nM paclitaxel after 24 hrs by Hochest 33258 staining based fluorescent microscopic analysis; assay type: functional, cell-based
# ECa-109 cell line [9] = assay: Induction of apoptosis in human EC109 cells assessed as decrease in Bcl-XL level at 15 uM in presence of 5 nM paclitaxel by Western blot method; assay type: functional, cell-based
# ECa-109 cell line [10] = assay: Cytotoxicity against human EC109 cells assessed as combination index at 30 uM in presence of 2.5 nM paclitaxel; assay type: functional
# ECa-109 cell line [11] = assay: Cytotoxicity against human EC109 cells assessed as combination index at 10 uM in presence of 5 nM paclitaxel; assay type: functional
# Mus musculus [12] = assay: Cardiotoxicity in nude mouse xenografted with human EC109 cells at 10 mg/kg in presence of paclitaxel measured after 21 days by histopathological analysis; assay type: toxicity, organism-based; settings: in vivo, 504 h
# ECa-109 cell line [13] = assay: Induction of apoptosis in human EC109 cells assessed as nuclear condensation at 15 uM after 24 hrs by Hochest 33258 staining based fluorescent microscopic analysis; assay type: functional, cell-based
# Mus musculus [14] = assay: Toxicity in nude mouse xenografted with human EC109 cells assessed as effect on spleen at 10 mg/kg in presence of paclitaxel measured after 21 days by histopathological analysis; assay type: organism-based; settings: in vivo, 504 h
# Mus musculus [15] = assay: Toxicity in nude mouse xenografted with human EC109 cells assessed as effect on lungs at 10 mg/kg in presence of paclitaxel measured after 21 days by histopathological analysis; assay type: organism-based; settings: in vivo, 504 h
# Mus musculus [16] = assay: Toxicity in nude mouse xenografted with human EC109 cells assessed as skin ulceration at 10 mg/kg in presence of paclitaxel measured after 21 days; assay type: organism-based; settings: in vivo, 504 h
# Mus musculus [17] = assay: Toxicity in nude mouse xenografted with human EC109 cells assessed as body weight loss at 10 mg/kg in presence of paclitaxel measured after 21 days; assay type: organism-based; settings: in vivo, 504 h
# ECa-109 cell line [18] = assay: Cytotoxicity against human EC109 cells assessed as combination index at 5 uM in presence of 2.5 nM paclitaxel; assay type: functional
# Mus musculus [19] = assay: Toxicity in nude mouse xenografted with human EC109 cells assessed as pathological changes at 10 mg/kg in presence of paclitaxel measured after 21 days; assay type: organism-based; settings: in vivo, 504 h
# ECa-109 cell line [20] = assay: Induction of apoptosis in human EC109 cells assessed as early apoptotic cells at 15 uM after 24 hrs in presence of paclitaxel by Annexin V-FITC/propidium iodide staining based flow cytometry (reference value: 1.3%); assay type: functional
# ECa-109 cell line [21] = assay: Induction of apoptosis in human EC109 cells assessed as decrease in Mcl-1 level at 15 uM in presence of 5 nM paclitaxel by Western blot method; assay type: functional, cell-based
# ECa-109 cell line [22] = assay: Induction of apoptosis in human EC109 cells assessed as decrease in Bcl-2 level at 15 uM in presence of 5 nM paclitaxel by Western blot method; assay type: functional, cell-based
# ECa-109 cell line [23] = assay: Induction of apoptosis in human EC109 cells assessed as late apoptotic cells at 15 uM after 24 hrs by Annexin V-FITC/propidium iodide staining based flow cytometry (reference value: 1%); assay type: functional
# ECa-109 cell line [24] = assay: Antitumor activity against human EC109 cells xenografted in nude mouse assessed as induction of necrosis at 10 mg/kg measured after 21 days by H and E staining based assay; assay type: functional, organism-based
# ECa-109 cell line [25] = assay: Induction of apoptosis in human EC109 cells assessed as necrotic cells at 15 uM after 24 hrs by Annexin V-FITC/propidium iodide staining based flow cytometry (reference value: 1.6 %); assay type: functional
# Mus musculus [26] = assay: Hepatotoxicity in nude mouse xenografted with human EC109 cells at 10 mg/kg in presence of paclitaxel measured after 21 days by histopathological analysis; assay type: toxicity, organism-based; settings: in vivo, 504 h
# ECa-109 cell line [27] = assay: Induction of apoptosis in human EC109 cells assessed as nuclear shrinkage at 15 uM in presence of 5 nM paclitaxel after 24 hrs by Hochest 33258 staining based fluorescent microscopic analysis; assay type: functional, cell-based
# ECa-109 cell line [28] = assay: Cytotoxicity against human EC109 cells assessed as combination index at 5 uM in presence of 5 nM paclitaxel; assay type: functional
# ECa-109 cell line [29] = assay: Induction of apoptosis in human EC109 cells assessed as increase in PUMA level at 15 uM in presence of 5 nM paclitaxel by Western blot method; assay type: functional, cell-based
# Mus musculus [30] = assay: Toxicity in nude mouse xenografted with human EC109 cells assessed as body weight loss at 10 mg/kg measured after 21 days; assay type: organism-based; settings: in vivo, 504 h
# Mus musculus [31] = assay: Hepatotoxicity in nude mouse xenografted with human EC109 cells assessed as change in serum GGT level at 10 mg/kg in presence of paclitaxel measured after 21 days; assay type: toxicity, organism-based; settings: in vivo, 504 h
# ECa-109 cell line [32] = assay: Induction of apoptosis in human EC109 cells assessed as nuclear shrinkage at 15 uM after 24 hrs by Hochest 33258 staining based fluorescent microscopic analysis; assay type: functional, cell-based
# ECa-109 cell line [33] = assay: Cytotoxicity against human EC109 cells assessed as combination index at 30 uM in presence of 10 nM paclitaxel; assay type: functional
# ECa-109 cell line [34] = assay: Cytotoxicity against human EC109 cells assessed as combination index at 15 uM in presence of 5 nM paclitaxel; assay type: functional
# Mus musculus [35] = assay: Nephrotoxicity in nude mouse xenografted with human EC109 cells at 10 mg/kg in presence of paclitaxel measured after 21 days by histopathological analysis; assay type: toxicity, organism-based; settings: in vivo, 504 h
# ECa-109 cell line [36] = assay: Induction of apoptosis in human EC109 cells assessed as early apoptotic cells at 15 uM after 24 hrs by Annexin V-FITC/propidium iodide staining based flow cytometry (reference value: 1.3%); assay type: functional
# ECa-109 cell line [37] = assay: Cytotoxicity against human EC109 cells assessed as combination index at 10 uM in presence of 2.5 nM paclitaxel; assay type: functional
# ECa-109 cell line [38] = assay: Cytotoxicity against human EC109 cells assessed as combination index at 5 uM in presence of 10 nM paclitaxel; assay type: functional
# Mus musculus [39] = assay: Hepatotoxicity in nude mouse xenografted with human EC109 cells assessed as change in serum total protein level at 10 mg/kg in presence of paclitaxel measured after 21 days; assay type: toxicity, organism-based; settings: in vivo, 504 h
compound,measurement,setting,value
C=C1C(=O)[C@@]23[C@@H]4OC(c5ccc(Cl)cc5)O[C@@]25OC[C@@]2([C@H]([C@@H]5O)C(C)(C)CC[C@@H]2O)[C@@H]3CC[C@@H]14 (some centres undefined),Activity,Mus musculus [1],Non-Toxic
same,Activity,ECa-109 cell line [2],Active
same,TGI,ECa-109 cell line [3],77.21%
same,Activity,ECa-109 cell line [4],Active
same,Activity,ECa-109 cell line [5],Active
same,CI,ECa-109 cell line [6],0.6
same,Activity,ECa-109 cell line [7],Active
same,Activity,ECa-109 cell line [8],Active
same,Activity,ECa-109 cell line [9],Active
same,CI,ECa-109 cell line [10],1.15
same,CI,ECa-109 cell line [11],0.43
same,Activity,Mus musculus [12],Non-Toxic
same,Activity,ECa-109 cell line [13],Active
same,Activity,Mus musculus [14],Non-Toxic
same,Activity,Mus musculus [15],Non-Toxic
same,Activity,Mus musculus [16],Non-Toxic
same,Activity,Mus musculus [17],Non-Toxic
same,CI,ECa-109 cell line [18],1.79
same,Activity,Mus musculus [19],Non-Toxic
same,Activity,ECa-109 cell line [20],36.1%
same,Activity,ECa-109 cell line [21],Active
same,Activity,ECa-109 cell line [22],Active
same,Activity,ECa-109 cell line [23],5.3%
same,Activity,ECa-109 cell line [24],Active
same,Activity,ECa-109 cell line [25],1.3%
same,Activity,Mus musculus [26],Non-Toxic
same,Activity,ECa-109 cell line [27],Active
same,CI,ECa-109 cell line [28],0.75
same,Activity,ECa-109 cell line [29],Active
same,Activity,Mus musculus [30],Non-Toxic
same,Activity,Mus musculus [31],Non-Toxic
same,Activity,ECa-109 cell line [32],Active
same,CI,ECa-109 cell line [33],1.12
same,CI,ECa-109 cell line [34],0.37
same,Activity,Mus musculus [35],Non-Toxic
same,Activity,ECa-109 cell line [36],20.2%
same,CI,ECa-109 cell line [37],0.56
same,CI,ECa-109 cell line [38],0.48
same,Activity,Mus musculus [39],Non-Toxic
